# Source: patent EP0998946A1, “Non-porphyrin compound for use as a diagnosticum and/or pharmaceutical” (K.U. LEUVEN RESEARCH & DEVELOPMENT, priority 1998, dated 2000)
# Legend:
# [1] = tested on: Reperfused hepatic infarction in rats; assay: MRI contrast enhancement, reperfused hepatic infarction in rats; assay type: in vivo, Wistar rats
# [2] = tested on: Acute myocardial infarction; assay: MRI contrast enhancement, reperfused myocardial infarction in rabbits; assay type: in vivo, New Zealand rabbits; settings: rabbit heart, 18 hours after IV injection at 0.05 mmol/kg, T1-w spin echo
# [3] = tested on: Acute myocardial infarction; assay: MRI contrast enhancement, acute reperfused myocardial infarction in dogs; assay type: in vivo, Mongrel dogs; settings: dog
# mice = assay: Acute lethal toxicity (LD50) in mice
# rats = assay: Acute lethal toxicity (LD50) in rats; settings: 5.0 mmol/kg
# [4] = tested on: reperfused hepatic infarction; assay: Scintigraphic imaging and infarction to normal tissue radioactivity ratio; assay type: in vivo, rat; settings: 74 MBq
# Description: Two effective and reproducible animal models have been induced and used in the in vivo assessment of newly synthesized agents. • 1. Reperfused hepatic infarction in rats: adult Wistar rats weighing about 350 grams were anesthetized with intraperitoneal injection of pentobarbital (Nembutal®, 40 mg/kg, Sanofi Sante Animale, B-1130 Brussels, Belgium). Under laparotomy, reperfused hepatic infarction was induced by temporarily clamping the hilum of the right liver lobes for 3 hours. The abdominal cavity was then closed and the rats were allowed to recover from surgery. • 2. Acute myocardial infarction in rabbits and dogs: under general anesthesia with Nembutal® at 6 mg/kg/h and intubated ventilation, adult New Zealand rabbits of 3 kg or Mongrel dogs of 20 kg underwent open-chest surgery through the seventh intercostal space. The left anterior descending (LAD) or circumflex (Cx) branch of the coronary artery was encircled and occluded with a snare-occluder for 150 minutes and reopened by losing the occluder to induce irreversible reperfused AMI. The thoracic cavity was closed by layers with the free air expelled.
# […] This animal was prepared as described above. Scintigraphic images were acquired during 1 to 5 minutes at regular time intervals up to 24 h after injection, using a Triad-gamma camera equipped with an ultra-high resolution parallel collimator.
# After sacrificing the animal, organs were isolated and necrotic and viable liver parts were separated and weighed. Their 99m Tc radioactivity was measured using a sodium iodine scintillation detector coupled to a multichannel analyzer. The activity per gram tissue was a factor of 3.2 higher in necrotic liver tissue as compared to normal liver tissue.
# This imaging result has been confirmed by radioactivity counting with a factor of more than 3 between infarcted and normal liver tissues.
# necrotic liver = assay: Biodistribution: tissue Gd content by ICP-AES in rats; settings: Gadophrin-2 comparison
# [5] = rat, 0.05 mmol/kg, T1 weighted spin echo
compound,measurement,setting,value
"CNC[C@H](O)[C@@H](O)[C@H](O)[C@H](O)CO.CNC[C@H](O)[C@@H](O)[C@H](O)[C@H](O)CO.O=C([O-])CN(CCN(CC(=O)[O-])CC(=O)O)CCN(CC(=O)[O-])CC(=O)O.[Gd+3] [Gd-DTPA, reference compound]",contrast enhancement of the lesions,"[1]; T1 weighted MRI, hepatic and myocardial infarcts, iv 0.05 mmol/kg (Gd-DTPA 0.1 mmol/kg), degree and duration equal to that with Gadophrin-2",only enhances nonspecifically the lesions at the early phase (<2h)
"N,N'-Bis(diethylenetriamino penta-acetato)-4,4'-methylene bis(3-hydroxy-2-naphthalene carboxylic hydrazide), Gd-complex, sodium salt [ECIII-60]",signal intensity of infarcted liver versus normal liver,"[1]; rat, 0.05 mmol/kg, 60 minutes after injection, T1 weighted spin echo",surpassed that of normal liver
same,time at which the necrosis-to-normal contrast reached maximum,[1]; [5],24 h
same,time until the enhancement of the necrosis became homogeneous,[1]; [5],within a couple of hours
same,enhancement of the transmural infarct,[2],persistently enhanced
same,enhancement at the infarcted papillary muscle,"[3]; eighteen hours after contrast, 0.05 mmol/kg IV",extremely strong enhancement
same,signals of blood pool and papillary muscle,"[3]; ten minutes after IV injection at 0.05 mmol/kg, T1-w turbo-FLASH",strongly enhanced
same,No. Deaths/No. animals,mice; 2.15 mmol/kg,0/4
same,No. Deaths/No. animals,mice; 5.0 mmol/kg,3/3
same,No. Deaths/No. animals,rats,4/4
"N,N'-Bis(diethylenetriamino penta-acetato)-4,4'-methylene bis(3-hydroxy-2-naphthalene carboxylic hydrazide), technetium-99m complex, sodium salt [Example 3]",nuclear scintigraphy finding,"[4]; rat with reperfused right liver lobe infarction, 24 hours after administration",hot spot caused by accumulation tracer in the necrotic liver lobe only
same,"activity per gram tissue, factor necrotic liver tissue versus normal liver tissue","[4]; rat, 99mTc radioactivity of isolated liver parts after sacrifice",3.2
same,scintigraphic visualization of the infarcted region,"[4]; rat, images acquired 20 h after injection",Clear visualization of the infarcted region
same,"radioactivity counting, factor between infarcted and normal liver tissues","[4]; rat, 24 hours after administration",more than 3
gadolinium mesoporphyrin [Gadophrin-2],"Gadolinium content, proportion necrotic liver to normal liver",necrotic liver,one-to-one
